Literature values in US20090093506A1, “Copper antagonist compositions” (priority 2007, published 2009).
Blank lines part the entries; values can stand above or below the compound they belong to.

Tests used:
[1] = not given; remark: listed apart in the source
[2] = solution of the free base itself

solubility in acetone (acetone): insoluble
solubility in alcohol (alcohol): slightly soluble
solubility in benzene (benzene): insoluble
solubility in carbon tetrachloride (carbon tetrachloride): insoluble
solubility in ether (ether): insoluble
solubility in water (water): freely soluble
SMILES: CC(C)(S)[C@@H](N)C(=O)O [Penicillamine, 3-mercapto-D-valine]

SMILES: CC(=O)[O-].CC(=O)[O-].[Zn+2] [Zinc acetate]
long-term or major side effects ([1]; patients with Wilson's disease): has not shown any long-term or major side effects

rhabdomyolysis ([1]; patients receiving the drug, withdrawn from the U.S. market August 2001): seen to occur more often
SMILES: COCc1c(C(C)C)nc(C(C)C)c(/C=C/[C@@H](O)C[C@@H](O)CC(=O)O)c1-c1ccc(F)cc1 [cerivastatin]

pH of a solution [2]: 14
SMILES: NCCNCCNCCN [trientine, triethylenetetramine]
